Converted amounts (≈) assume the structure as drawn.
Tests used:
Streptococcus pneumoniae = experiment: Antibacterial activity against Streptococcus pneumoniae ATCC 49619 assessed as reduction in bacterial growth by CLSI based broth microdilution method; type: functional
Staphylococcus aureus = experiment: Antibacterial activity against wild type methicillin-sensitive Staphylococcus aureus ATCC 29213 assessed as reduction in bacterial growth by CLSI based broth microdilution method; type: functional
Haemophilus influenzae = experiment: Antibacterial activity against Haemophilus influenzae ATCC 49247 assessed as reduction in bacterial growth by CLSI based broth microdilution method; type: functional
Escherichia coli = experiment: Antibacterial activity against Escherichia coli ATCC 25922 assessed as reduction in bacterial growth by CLSI based broth microdilution method; type: functional
[1] = Thermodynamic solubility of the compound; type: physicochemical; conditions: read-out: Therm_solubility

Row | MIC (Streptococcus pneumoniae) [µg/mL] | MIC (Staphylococcus aureus) [µg/mL] | MIC (Haemophilus influenzae) [µg/mL] | MIC (Escherichia coli) [µg/mL] | solubility thermodynamic [1] [µg/mL] | Compound
1 | 4 (≈ 9.59 µM) | 2 (≈ 4.8 µM) | 8 (≈ 19.2 µM) | 2 (≈ 4.8 µM) | 1060 (≈ 2550 µM) | Cc1nc2c(=O)n(C3CC3)c3c(Cl)c(N4CC5CCCNC5C4)c(F)cc3c2o1 (stereo not drawn)
2 | 2 (≈ 4.77 µM) | 1 (≈ 2.39 µM) | 16 (≈ 38.2 µM) | 4 (≈ 9.55 µM) | 1190 (≈ 2850 µM) | Cc1nc2c(=O)n(C3CC3)c3c(Cl)c(N4CCC(CN(C)C)C4)c(F)cc3c2o1 (stereo not drawn)

More lines, now with the values behind:

Row | Compound | MIC (Streptococcus pneumoniae) [µg/mL] | MIC (Staphylococcus aureus) [µg/mL] | MIC (Haemophilus influenzae) [µg/mL] | MIC (Escherichia coli) [µg/mL] | solubility thermodynamic [1] [µg/mL]
3 | Cc1nc2c(=O)n(C3CC3)c3cc(N4CCC(O)C4)c(F)cc3c2o1 (stereo not drawn) | 64 (≈ 186 µM) | 32 (≈ 93.2 µM) | 4 (≈ 11.6 µM) | 64 (≈ 186 µM) | 
4 | Cc1nc2c(=O)n(C3CC3)c3cc(N4CC5CNCC5C4)c(F)cc3c2o1 (stereo not drawn) | 4 (≈ 10.9 µM) | 2 (≈ 5.43 µM) | 2 (≈ 5.43 µM) | 4 (≈ 10.9 µM) | 1200 (≈ 3240 µM)
5 | Cc1nc2c(=O)n(C3CC3)c3cc(N4CCC(N)C4)c(F)cc3c2o1 (stereo not drawn) | 8 (≈ 23.4 µM) | 2 (≈ 5.84 µM) | 1 (≈ 2.92 µM) | 1 (≈ 2.92 µM) | 
